System: NOMO1
Test: cell viability relative to DMSO control; higher = less cytotoxic
Details: 48 h
Procedure, shortened: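 Viability values are per-plate percentages of DMSO wells, with background from cell-free wells. Library compounds in DMSO were pin-dosed, in an 11-point threefold series from 47 μM to 0.79 nM, onto NOMO1 or SEM (500 cells/well) or P12-Ichikawa (1000 cells/well) leukemia cells in 1536-well plates (5 μl). Those cells had been adapted for at least four passages in each medium, and CellTiter-Glo One luminescence was read after 48 h at 37°C.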

[1] = HPLM + 10% dialyzed FBS, 0.000781 µM
[2] = HPLM + 10% dialyzed FBS, 0.00234 µM
[3] = HPLM + 10% dialyzed FBS, 0.00702 µM
[4] = HPLM + 10% dialyzed FBS, 0.0211 µM
[5] = HPLM + 10% dialyzed FBS, 0.0632 µM
[6] = HPLM + 10% dialyzed FBS, 0.19 µM
[7] = HPLM + 10% dialyzed FBS, 0.569 µM
[8] = HPLM + 10% dialyzed FBS, 1.71 µM
[9] = HPLM + 10% dialyzed FBS, 5.12 µM
[10] = HPLM + 10% dialyzed FBS, 15.4 µM
[11] = HPLM + 10% dialyzed FBS, 46.1 µM
[12] = RPMI 5 mM glucose + 10% FBS, 0.000781 µM
[13] = RPMI 5 mM glucose + 10% FBS, 0.00234 µM
[14] = RPMI 5 mM glucose + 10% FBS, 0.00702 µM
[15] = RPMI 5 mM glucose + 10% FBS, 0.0211 µM
[16] = RPMI 5 mM glucose + 10% FBS, 0.0632 µM
[17] = RPMI 5 mM glucose + 10% FBS, 0.19 µM
[18] = RPMI 5 mM glucose + 10% FBS, 0.569 µM
[19] = RPMI 5 mM glucose + 10% FBS, 1.71 µM
[20] = RPMI 5 mM glucose + 10% FBS, 5.12 µM
[21] = RPMI 5 mM glucose + 10% FBS, 15.4 µM
[22] = RPMI 5 mM glucose + 10% FBS, 46.1 µM
[23] = RPMI 5 mM glucose + 10% dialyzed FBS, 0.000781 µM
[24] = RPMI 5 mM glucose + 10% dialyzed FBS, 0.00234 µM
[25] = RPMI 5 mM glucose + 10% dialyzed FBS, 0.00702 µM
[26] = RPMI 5 mM glucose + 10% dialyzed FBS, 0.0211 µM
[27] = RPMI 5 mM glucose + 10% dialyzed FBS, 0.0632 µM
[28] = RPMI 5 mM glucose + 10% dialyzed FBS, 0.19 µM
[29] = RPMI 5 mM glucose + 10% dialyzed FBS, 0.569 µM
[30] = RPMI 5 mM glucose + 10% dialyzed FBS, 1.71 µM
[31] = RPMI 5 mM glucose + 10% dialyzed FBS, 5.12 µM
[32] = RPMI 5 mM glucose + 10% dialyzed FBS, 15.4 µM
[33] = RPMI 5 mM glucose + 10% dialyzed FBS, 46.1 µM

SMILES	cell viability [1] [%]	cell viability [2] [%]	cell viability [3] [%]	cell viability [4] [%]	cell viability [5] [%]	cell viability [6] [%]	cell viability [7] [%]	cell viability [8] [%]	cell viability [9] [%]	cell viability [10] [%]	cell viability [11] [%]	cell viability [12] [%]	cell viability [13] [%]	cell viability [14] [%]	cell viability [15] [%]	cell viability [16] [%]	cell viability [17] [%]	cell viability [18] [%]	cell viability [19] [%]	cell viability [20] [%]	cell viability [21] [%]	cell viability [22] [%]	cell viability [23] [%]	cell viability [24] [%]	cell viability [25] [%]	cell viability [26] [%]	cell viability [27] [%]	cell viability [28] [%]	cell viability [29] [%]	cell viability [30] [%]	cell viability [31] [%]	cell viability [32] [%]	cell viability [33] [%]
OC[C@H]1O[C@H]([C@@H](F)[C@@H]1O)N2\C=C/C(=O)NC2=O	99.1	106	106	97.2	116	108	108	107	109	97.9	90.2	85.9	40.6	97	92.9	99.7	104	98.2	100	84.8	94.3	82.8	105	74.5	97	102	102	99.4	105	99.5	84	104	95.2
CC(=O)CC(C1=CC=CC=C1)C/2=C(O)/C3=CC=CC=C3OC2=O (stereo unspecified)	96.8	126	111	129	124	132	132	128	147	143	155	–	–	–	–	–	–	–	–	–	–	–	109	116	128	123	120	126	127	121	124	127	129
NC(=O)c1ncn([C@@H]2O[C@H](CO)[C@@H](O)[C@H]2O)n1	116	134	110	117	112	103	88	69.2	55.4	56.8	29.6	104	129	115	108	113	110	102	85.4	76.7	74.5	36.7	124	110	116	115	114	104	89.4	69.3	58.2	68.2	48.9
CC(C)Nc1cc(C(F)(F)F)cc2nc(NC(=O)c3cccnc3)nn12	120	116	118	126	123	101	119	85.2	80.8	71.6	54.2	106	107	115	106	98.1	118	116	52.6	45.9	56.5	64.8	108	109	115	119	125	103	98.2	55	50.4	56.9	62.9
O=C(CO)N1CCC(c2n[nH]c(-c3ccc(Cl)cc3)c2-c2ccncn2)CC1	117	121	134	129	117	129	120	117	123	34.6	78.2	111	115	118	113	121	111	113	115	119	57.3	96.3	113	123	116	105	123	111	109	119	113	41.6	92.8
COC[C@@H](NC(C)=O)C(=O)NCc1ccccc1	112	119	117	132	116	118	114	117	107	105	86.7	95.9	110	97	102	118	109	119	104	104	112	64.8	106	117	116	114	125	115	125	124	131	118	69.5
CC(C)(C)c1cc(C=C(C#N)C#N)cc(Br)c1O	86	114	124	112	112	122	122	113	113	103	94.9	89.9	115	116	126	103	106	121	132	107	109	100	84.5	101	105	103	105	108	125	115	116	116	103
C[C@@H]1COCCN1C\2=C\C(=O)N\3CC[C@H](N(CC4=CN=CC(=C4)Cl)C3=N2)C(F)(F)F	90.9	95.9	102	105	124	130	112	100	103	45.4	29.4	98	87.7	95.1	93.8	95.4	98.5	92.7	94.2	96.9	57.4	26	87.7	89.9	91.1	98.4	108	113	95.1	89.5	67.7	37	22
O=C1\C=C/C[C@@H]2[C@H]3CCCN4CCC[C@@H](CN12)[C@@H]34	116	110	117	106	125	107	101	107	121	89.2	104	90.2	94.3	97.1	90.9	95.4	93	93.4	85.9	91.8	93	93.4	106	107	103	116	94.1	104	90.3	106	105	98.9	86.6
NC1=NC=C(C=C1)C2=CC=C3N=CC\4=C(N(C(=O)\C=C4)C5=CC(=CC=C5)C(F)(F)F)C3=C2	80.5	76.8	62.6	57.6	41.2	27.1	24.1	24.3	21.4	18.6	16.5	86.1	83.9	75.3	74.4	55	29.7	30.3	23.2	15.3	11.7	13.2	68.9	72.8	74.1	61.4	46	28.5	29.5	22.9	17.2	13.5	17.1
Cc1cccc(C)c1OCC(=O)N[C@@H](Cc1ccccc1)[C@@H](O)C[C@H](Cc1ccccc1)NC(=O)[C@H](C(C)C)N1CCCNC1=O	95.1	106	102	109	104	111	89	91.5	91.4	81	43.9	85.8	94	97.7	85.8	95.9	97.3	84	78.4	83	86.4	74.4	96.9	92.9	92.9	107	91.1	89.2	81.1	82.4	89.4	76.5	71
c1cc(CN2CCCNCCNCCCNCC2)ccc1CN1CCCNCCNCCCNCC1	79.6	109	100	30.5	117	108	102	109	109	106	104	88.4	85.8	97.8	18.6	89.2	105	86.7	88.4	85.4	101	92.5	89.2	78.2	83.5	33	98.3	93.9	102	92.7	91.3	91.4	93.4
COc1cc2c(Nc3ccc(Cl)c(Cl)c3F)ncnc2cc1OC[C@@H]1C[C@@H]2CN(C)C[C@@H]2C1	109	113	116	119	115	88.4	81.2	73	50.7	53.4	20.7	114	121	131	130	127	126	119	117	87.9	101	22.5	101	124	125	118	124	123	112	98.3	79.1	83.9	24.3
C1CCC(C(CC2CCCCN2)C2CCCCC2)CC1 (stereo unspecified)	121	111	127	111	140	127	132	150	131	118	5.65	108	116	133	144	116	122	132	115	131	121	6.9	110	108	124	107	114	130	114	131	116	98.1	6.09
